The record followed here is patent US20240239763A1, “CRYSTAL FORM OF THIOPHENE DERIVATIVE AND PREPARATION METHOD THEREFOR” (DONGBAO PURPLE STAR (HANGZHOU) BIOPHARMACEUTICAL CO., LTD., priority 2021, published 2024).

A value given as a limit tells only on which side of the number the result lay.

Series [1] can be described thus: Solid-state stability test of crystal form C. It is filed as physicochemical. The following applies: for Content / purity: crystal form C. As to the method: They were separately placed under stability conditions of high temperature (60° C.), high humidity (25° C./92.5% humidity), combined high temperature and high humidity (40° C./75% humidity), and light exposure. For the sample placed under high temperature and high humidity, the bottle was sealed with aluminum foil, with small holes punctured in the aluminum foil to ensure that the samples could fully contact the ambient air; the sample placed under strong light exposure was sealed with a quartz glass cap. […] The samples placed under combined high temperature and high humidity (40° C./75% humidity) were taken for testing in the 1st, 2nd, and 3rd months (appearance, related substances, and content). The samples placed under light exposure conditions were taken for testing when the total illuminance reached 1.2×10^6 Lux•hr.

In another series the target is CYP2C19 (Homo sapiens (Human), UniProt P33261). Put plainly: Cytochrome P450 isoenzyme inhibition, human liver microsomes. It is filed as in vitro ADME. The following applies: read-out: Cytochrome P450 isoenzymes IC50, CYP2C19. As to the method:
(§1) To determine the inhibitory activity of the test compound against different subtypes of human cytochrome P450 isoenzymes. Test compounds, standard inhibitors (at 100× final concentration), and mixed substrate working solutions were prepared; the microsomes (purchased from Corning Inc.) stored at −80° C. were taken out and thawed. To the corresponding wells were added 20 μL of the test compound and standard inhibitor solutions. Meanwhile, 20 μL of the respective solvent was added to the No Inhibitor Control (NIC) and blank control wells. Next, 20 μL of mixed substrate solution was added to the corresponding wells, except the blank wells where 20 μL of phosphate buffer (PB) was added. A human liver microsome solution was prepared (immediately returned to the fridge after the date of use was marked). Then, 158 μL of this solution was added to all the wells. The sample plate was placed in a 37° C. water bath for pre-incubation. A co-enzyme factor (NADPH) solution was then promptly prepared. After 10 minutes, 20 μL of NADPH solution was added to all wells. The sample plate was shaken to mix and placed back into a 37° C. water bath for an additional 10 minutes of incubation. At the respective time points, the reaction was terminated by adding 400 μL of cold acetonitrile solution (internal standard at 200 ng/ml of tolbutamide and labetalol). The sample plate was mixed thoroughly and was then centrifuged at 4000 rpm for 20 minutes to precipitate proteins. 200 μL of the supernatant was taken and mixed with 100 μL of water, after which it was sent for LC/MS/MS analysis.
A general note: Liver microsomes are vesicles of endoplasmic reticulum, rich in cytochrome P450 enzymes.

The next series concerns the target CYP3A4-M (Homo sapiens (Human), UniProt P08684). The series is described as above. The class given is in vitro ADME. The following applies: read-out: Cytochrome P450 isoenzymes IC50, CYP3A4-M. As to the method:
as §1

In a further series the target is CYP2C9 (Homo sapiens (Human), UniProt P11712). The series is described as above. It is filed as in vitro ADME. As to conditions: read-out: Cytochrome P450 isoenzymes IC50, CYP2C9. As to the method:
as §1

The target in the next series is CYP2D6 (Homo sapiens (Human), UniProt P10635). The series is described as above. It is filed as in vitro ADME. The following applies: read-out: Cytochrome P450 isoenzymes IC50, CYP2D6. As to the method: as §1
CYP2D6, sequence (P10635 whole entry): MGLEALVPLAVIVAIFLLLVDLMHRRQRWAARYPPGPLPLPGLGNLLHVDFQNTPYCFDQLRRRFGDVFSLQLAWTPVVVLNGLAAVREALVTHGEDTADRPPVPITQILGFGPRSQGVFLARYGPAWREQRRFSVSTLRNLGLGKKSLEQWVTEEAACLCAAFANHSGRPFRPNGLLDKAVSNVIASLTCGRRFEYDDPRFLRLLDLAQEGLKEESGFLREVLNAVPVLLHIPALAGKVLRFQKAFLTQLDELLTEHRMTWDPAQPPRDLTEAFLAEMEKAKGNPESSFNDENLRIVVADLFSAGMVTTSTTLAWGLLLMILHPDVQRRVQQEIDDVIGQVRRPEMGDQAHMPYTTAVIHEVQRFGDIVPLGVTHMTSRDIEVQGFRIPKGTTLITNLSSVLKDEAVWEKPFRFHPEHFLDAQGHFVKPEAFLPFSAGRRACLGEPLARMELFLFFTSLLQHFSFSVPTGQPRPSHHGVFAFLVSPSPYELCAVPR
The nature of series [2]: Hepatic metabolic stability (HMS) in rat liver cells. The class given is in vitro ADME. The following applies: hepatocytes (liver cells) in suspension, read-out: Hepatic intrinsic clearance rates. How it is done:
(§2) To test the metabolic stability of the test compound in human and rat liver cells.
(§3) 2.1 Test Compound (10 mM), controls: 7-Ethoxycoumarin (30 mM), 7-Hydroxycoumarin (control, 30 mM)
(§4) 1) A 30 mM solution was prepared by dissolving a precise amount of the positive control compound in dimethyl sulfoxide (DMSO).
(§5) 2) In a 96-well plate, the 10 mM test compound and 30 mM positive control compound were diluted to 1 mM and 3 mM, respectively, using DMSO.
(§6) 3) Acetonitrile was used to further dilute the 1 mM test compound and 3 mM positive control compound to quantification solutions with final concentrations of 100 μM and 300 μM, respectively.
(§7) 4) The stored cells were thawed, separated, and suspended in culture mediums. These cells were then diluted to a concentration of 0.5×10^6 cells/mL using pre-warmed culture mediums.
(§8) 5) In the 96-well plate, 198 μL of the pre-warmed cell suspension was added. […]
(§9) Through the following formula, the residual rates for the test compound and the control compound were calculated.
(§10) The elimination rate constant k for the test compound and control compound in hepatocytes was calculated by plotting the logarithm of the residual rate against time. The half-life (T1/2) and intrinsic clearance rate (CLint) were determined based on the elimination rate constant k. […]

Another series relates to P-gp (human MDR1). Kind of series: MDR1 membrane permeability test (bidirectional). As to conditions: dog, MDR1-MDCK II. The class given is in vitro ADME, canine. How it is done:
MDR1-MDCK II cells are Madin-Darby canine kidney cells transfected with the human MDR1 gene, enabling stable high expression of P-gp. The purpose of the present study is to test the bidirectional permeability of the compound across the MDR1-MDCK II cell model and evaluate its potential for efflux transport.
MDR1-MDCK II cells (sourced from Piet Borst at the Netherlands Cancer Institute) were seeded on polyethylene terephthalate (PET) membranes in a 96-well insert system at a density of 2.5×10^5 cells/mL. The cells were cultured until they formed a confluent monolayer over 4-7 days.
Test compounds were diluted in transport buffer (HBSS containing 10 mM Hepes with DMSO, pH 7.4) to a concentration of 2 μM (DMSO<1%) and were applied to either the apical or basolateral side of the cell monolayer. […] Additionally, efflux ratios for each compound were measured, and both test and reference compounds were quantified, based on the peak area ratio of the analyte to IS by LC/MS/MS analysis. After the transport assay, the integrity of the cell monolayer was determined using a Lucifer Yellow exclusion assay. […] The relative fluorescence units (RFU) of […] were measured at 425/528 nm (excitation/emission) using an Envision microplate reader.
The apparent permeability coefficient (Papp, cm/s), efflux ratio, and recovery rate were calculated using the following formulas: […]

Series [3] is described as follows: Pharmacokinetics in SD rats in vivo. The following applies: male, Sprague-Dawley, rat, plasma. How it is done:
To test the pharmacokinetics of the compound in SD rats in vivo
Sprague Dawley rats (male, 180-350 g, 6 to 10 weeks of age, Beijing Vital River).
The solution was then filtered through a micropore membrane for later use. […] Six male SD rats were divided into two groups. […] In the second group, animals received a single oral gavage dose of the test compound at 10 mg/kg. […] Whole blood was centrifuged at 3200 g for 10 minutes at 4° C. to obtain plasma. The concentrations of the compound and uric acid (in the oral gavage group only) in the plasma were measured using the LC/MS/MS method. Pharmacokinetic parameters such as peak concentration, time to reach peak concentration, clearance rate, half-life, area under the curve, and bioavailability were calculated using Phoenix WinNonlin software.

The nature of series [4]: Hepatic metabolic stability (HMS) in human liver cells. As to conditions: hepatocytes (liver cells) in suspension, read-out: Hepatic intrinsic clearance rates. It is filed as in vitro ADME. As to the method: as §2, §3, §4, §5, §6, §7, §8, §9, §10
Series [5] is described as follows: Hygroscopicity study by dynamic vapor sorption (DVS). It is filed as physicochemical. As to conditions: 25° C. and 80% RH. How it is done:
Instrument model: Intrinsic dynamic vapor sorption analyzer Test conditions: A sample (10 to 30 mg) is taken and placed in a DVS sample tray for testing.
Detailed parameters for DVS are as follows:
Equilibrium: dm/dt=0.002%/min (minimum: 10 minutes, maximum: 180 minutes)
RH (%) test increment range: 0% to 95% to 0%
DVS Intrinsic dynamic vapor sorption analyzer
in a DVS sample tray for testing.

Setting [6] is: 40° C., relative humidity of 75%, open-top, 1M.
The mark [7] stands for this setting: 40° C., relative humidity of 75%, open-top, 2M.
[8] abbreviates: 40° C., relative humidity of 75%, open-top, 3M.
Setting [9] is: High humidity (25° C./relative humidity of 92.5%, open-top), 5 days.
Where [10] appears, read: High humidity (25° C./relative humidity of 92.5%, open-top), 10 days.
Setting [11] is: High humidity (25° C./relative humidity of 92.5%, open-top), 30 days.
[12] abbreviates: High temperature (60° C., open-top), 5 days.
Setting [13] is: High temperature (60° C., open-top), 10 days.
Where [14] appears, read: High temperature (60° C., open-top), 30 days.
Setting [15] is: Light exposure (total illuminance: 1.2 × 10^6 Lux · hr/near ultraviolet: 200 w · hr/m^2), 5 days.
The mark [16] stands for this setting: Light exposure (total illuminance: 1.2 × 10^6 Lux · hr/near ultraviolet: 200 w · hr/m^2), 10 days.
[17] abbreviates: 2.89 mg/kg, 2.89 mpk/intravenous injection.

CYP2C9, sequence (P11712 whole entry): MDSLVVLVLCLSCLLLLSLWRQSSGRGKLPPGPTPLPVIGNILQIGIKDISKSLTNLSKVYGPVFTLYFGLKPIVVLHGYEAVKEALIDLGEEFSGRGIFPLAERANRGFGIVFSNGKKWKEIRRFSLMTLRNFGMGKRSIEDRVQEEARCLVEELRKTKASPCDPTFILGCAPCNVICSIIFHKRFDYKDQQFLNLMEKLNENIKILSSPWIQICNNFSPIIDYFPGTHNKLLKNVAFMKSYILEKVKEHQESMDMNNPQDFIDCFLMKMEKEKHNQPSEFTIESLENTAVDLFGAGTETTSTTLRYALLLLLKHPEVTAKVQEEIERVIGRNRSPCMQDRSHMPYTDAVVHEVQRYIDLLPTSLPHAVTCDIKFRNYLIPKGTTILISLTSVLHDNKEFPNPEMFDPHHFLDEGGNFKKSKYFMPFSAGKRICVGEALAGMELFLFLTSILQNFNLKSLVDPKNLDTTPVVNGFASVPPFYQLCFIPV
CYP3A4-M, sequence (P08684 whole entry): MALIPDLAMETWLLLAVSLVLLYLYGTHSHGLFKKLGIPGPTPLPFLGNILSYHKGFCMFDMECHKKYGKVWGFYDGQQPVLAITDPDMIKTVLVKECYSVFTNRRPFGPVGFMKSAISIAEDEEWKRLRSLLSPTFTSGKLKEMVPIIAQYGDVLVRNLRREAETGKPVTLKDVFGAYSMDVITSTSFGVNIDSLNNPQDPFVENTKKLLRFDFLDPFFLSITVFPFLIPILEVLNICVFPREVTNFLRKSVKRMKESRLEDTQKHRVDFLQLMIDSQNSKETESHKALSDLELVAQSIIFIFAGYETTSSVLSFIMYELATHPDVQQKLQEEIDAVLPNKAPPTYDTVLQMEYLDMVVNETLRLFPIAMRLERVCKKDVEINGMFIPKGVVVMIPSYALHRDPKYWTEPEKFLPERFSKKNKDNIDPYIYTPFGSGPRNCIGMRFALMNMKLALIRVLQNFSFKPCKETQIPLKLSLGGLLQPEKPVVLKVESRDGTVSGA
CYP2C19, sequence (P33261 whole entry): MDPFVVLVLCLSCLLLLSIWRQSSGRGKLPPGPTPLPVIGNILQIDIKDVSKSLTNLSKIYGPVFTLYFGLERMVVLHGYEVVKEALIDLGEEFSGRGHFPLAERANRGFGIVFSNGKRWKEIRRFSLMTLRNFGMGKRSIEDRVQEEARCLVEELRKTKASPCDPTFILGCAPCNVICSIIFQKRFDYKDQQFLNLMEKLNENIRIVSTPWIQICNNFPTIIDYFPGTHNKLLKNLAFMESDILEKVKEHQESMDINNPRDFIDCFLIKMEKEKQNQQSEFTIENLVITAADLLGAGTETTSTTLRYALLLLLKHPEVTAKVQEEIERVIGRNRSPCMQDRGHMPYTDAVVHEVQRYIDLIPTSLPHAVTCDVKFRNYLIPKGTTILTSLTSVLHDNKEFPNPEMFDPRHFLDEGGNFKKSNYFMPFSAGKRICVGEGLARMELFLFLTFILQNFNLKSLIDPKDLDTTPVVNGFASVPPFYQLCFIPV

In general, IC50 refers to the concentration at which inhibition is half-maximal. Broadly, the Papp A→B is the apparent permeability from the apical to the basolateral side of a cell layer. Higher therefore signals ready permeation. A word on the Papp B→A: it is the apparent permeability from the basolateral to the apical side of a cell layer. One may read the AUC(0-inf) as the area under the concentration-time curve extrapolated to infinity. Usually clearance stands for the volume of plasma or blood freed of the substance per unit of time. The term Cmax denotes the maximum level reached in the sampled fluid or tissue. By Tmax is commonly meant the time at which the peak concentration occurs. For orientation: bioavailability means dose-corrected exposure relative to a reference, in per cent. Read a low bioavailability as poor availability. One may read the half-life as the time needed for the level to fall by half in the phase considered. With `N#Cc1sc(-c2ccc(C(=O)O)c(O)c2)c2c1CCC(F)(F)C2` [Compound of formula (I)], the Content in series [1] (0 days (initial)) came out at 98.1%; in series [1] (setting [6]), 97.8%; in [1] (setting [7]), 97.8%; in [1] (setting [8]) it was 97.8%; in series [1] (setting [9]) it was 97.9%; in series [1] (setting [10]), 97.9%. Further, the Content in [1] (setting [11]) was found to be 97.9%; in [1] (setting [12]), 98.5%; in series [1] (setting [13]) it was 98.3%; in series [1] (setting [14]) it was 98.1%; in series [1] (setting [15]), 97.6%; in series [1] (setting [16]), 98.0%. Further, the purity came to 98.84% in [1] (0 days (initial)); 98.83% in [1] (setting [6]); 99.02% in series [1] (setting [7]); 98.86% in series [1] (setting [8]); 98.90% in series [1] (setting [9]); 98.90% in series [1] (setting [10]). Also, the purity in [1] (setting [11]) was 98.80%; in [1] (setting [12]), 98.94%; in series [1] (setting [13]) it was 98.95%; in [1] (setting [14]), 98.87%; in series [1] (setting [15]) it was 98.89%; in series [1] (setting [16]), 98.91%. For the same molecule, the IC50 is more than 50 µM on CYP2C19, more than 50 µM on CYP3A4-M, 18.1 µM at CYP2C9 and more than 50 µM on CYP2D6. The values for the CLint scaled at 1 µM in series [2] and in [4] were 188 mL/min/kg and 31.8 mL/min/kg, respectively. The same molecule came in with a Papp A→B at […], 2 µM in the series on P-gp (human MDR1) (pH 7.4, A-to-B) of 26.4 ×10⁻⁶ cm/s. This molecule returned a Papp B→A at […], 2 µM in the series on P-gp (human MDR1) (pH 7.4, B-to-A) of 6.63 ×10⁻⁶ cm/s. Also, the AUC(0-inf) in series [3] (setting [17]) worked out at 41.8 µM·h; in series [3] (8.58 mg/kg, 8.58 mpk/oral), 86.6 µM·h. Besides, the C0 in series [3] (setting [17]) was 96.6 µM. Besides, in [3] (setting [17]), the clearance is 3.59 mL/min/kg. The Vd in series [3] (2.89 mg/kg, 2.89 mpk/intravenous injection, read-out: Vdss) was 0.32 L/kg. This molecule came in with a Cmax in [3] (8.58 mg/kg, 8.58 mpk/oral) of 27.5 µM. For the same molecule, the time to peak (Tmax) in [3] (8.58 mg/kg, 8.58 mpk/oral) worked out at 0.5 h. For the same molecule, in series [3] (8.58 mg/kg, 8.58 mpk/oral), the bioavailability was determined as 62.1%. The same molecule had a half-life in series [3] (8.58 mg/kg, 8.58 mpk/oral) of 2.47 h.

For `N#Cc1sc(-c2ccc(C(=O)O)c(O)c2)c2c1CCC(F)(F)C2` [crystal form C], in series [1] (high temperature, high humidity, strong light exposure, and accelerated conditions), the “solid-state stability (in words)” value was “good stability”. Besides, in series [5], the hygroscopicity classification result is recorded as “no hygroscopicity” and the “ΔW (hygroscopic weight gain)” value is 0.196%.
